{"source": "patent US20210051954A1", "about": "“METHOD FOR INCREASING THE RESISTANCE OF A CEREAL PLANT” (BASF AGROCHEMICAL PRODUCTS B.V., priority 2018, published 2021)", "key": {"Maize (Corn)": {"system": "Maize (Corn)", "test": "% germination in maize (corn) by drench treatment, 21 days after planting", "type": "in vivo", "conditions": "30% FS formulation; for % Germination in Mineral soil in Standard conditions: standard watered conditions (moisture above 80%); for % Germination in Organic soil in Draught conditions: drought conditions (re-watering at 45% pot moisture)", "from_the_text": "(§1) Watering cycles—The level of stress is created by watering the pots based on the % of pot moisture as measured by wireless probes. Depending on weather conditions the number of cycles vary as needed.\n(§2) The % of moisture triggers the watering process independent of the time that it takes to reach this point.\n(§3) In “well-watered conditions” or “standard watered conditions”, in pots the % moisture is kept above 80%.\n(§4) In “drought conditions”, in the pots re-watering happens at 45% pot moisture.\n(§5) “Untreated” means that the seed has not been exposed to the compound I (a).\n(§6) The treaments(s) were applied directly over the planted seed at the rates found in the table(s) below. Seeds were then covered and the % rate of germination was calculated at 21 days after planting.\n(§7) The % rate of germination was calculated as the number of seeds that emerged divided by the number of seeds planted and presented as as a percentage.\n(§8) Seeds were planted in two types of soil (Mineral and Organic) which were free of pest (insects, weeds, or diseases) to avoid interactions with the treatments applied\nExample 1: Increase in % of Germination in Maize (Corn) by Drench Treatment"}, "Wheat": {"system": "Wheat", "test": "% germination in wheat by seed treatment, 21 days after planting", "type": "in vivo", "conditions": "0.5 mg of (la)/plant, 30% FS formulation", "from_the_text": "as §1, §2, §3, §4, §5, §6, §7, §8\nExample 2: Increase % Germination in Wheat by Seed Treatement"}}, "data": [{"smiles": "CN(C(=O)c1ccccc1)c1cccc(C(=O)Nc2c(Br)cc(C(F)(C(F)(F)F)C(F)(F)F)cc2C(F)(F)F)c1F", "note": "[(la)]", "values": [{"measurement": "% Germination in Mineral soil in Standard conditions", "setting": "Maize (Corn); 0.5 mg of (la)/plant", "value": 100, "unit": "%"}, {"measurement": "% Germination in Organic soil in Draught conditions", "setting": "Maize (Corn); 0.5 mg of (la)/plant", "value": 98, "unit": "%"}, {"measurement": "% Germination in Mineral soil in Standard conditions", "setting": "Maize (Corn); 1 mg of (la)/plant", "value": 100, "unit": "%"}, {"measurement": "% Germination in Organic soil in Draught conditions", "setting": "Maize (Corn); 1 mg of (la)/plant", "value": 100, "unit": "%"}, {"measurement": "% Germination in Mineral soil in Standard conditions", "setting": "Wheat; mineral soil, standard watered conditions (moisture above 80%)", "value": 95, "unit": "%"}, {"measurement": "% Germination in Organic soil in Draught conditions", "setting": "Wheat; organic soil, drought conditions (re-watering at 45% pot moisture)", "value": 95, "unit": "%"}, {"measurement": "% Germination in Organic soil in Standard conditions", "setting": "Wheat; organic soil, standard watered conditions (moisture above 80%)", "value": 100, "unit": "%"}]}]}
